In US20260041679A1, “METHOD OF TREATING HYPERTENSION WITH THE ALDOSTERONE SYNTHASE INHIBITOR BAXDROSTAT” (CINCOR PHARMA, INC., priority 2022, published 2026):

Tested on: patients with uHTN
Assay: Study 124 Part 2: 2 mg baxdrostat monotherapy for 4 weeks, SBP and safety
Type: in vivo, human
Details: for AESI, % / AESI, e - Number of events / AESI, n - Number of subjects / SAEs, % / SAEs, e - Number of events / SAEs, n - Number of subjects / TEAEs Drug-Related, % / TEAEs Drug-Related, e - Number of events / TEAEs Drug-Related, n - Number of subjects / TEAEs Leading to death, % / TEAEs Leading to death, e - Number of events / TEAEs Leading to death, n - Number of subjects / TEAEs Leading to dosing discontinuation, % / TEAEs Leading to dosing discontinuation, e - Number of events / TEAEs Leading to dosing discontinuation, n - Number of subjects / TEAEs Leading to study discontinuation, % / TEAEs Leading to study discontinuation, e - Number of events / TEAEs Leading to study discontinuation, n - Number of subjects / TEAEs, % / TEAEs, e - Number of events / TEAEs, n - Number of subjects: Part 2
Protocol: Study 124 is a double-blind, placebo-controlled, dose range finding, multicenter study conducted in patients with uHTN receiving background antihypertensive agent(s) that are either an ACEI or an ARB, an ACEI/ARB plus a thiazide diuretic, or an ACEI/ARB plus a calcium channel blocker. The study consists of two parts: Part 1 consists of an 8-week treatment period in which the patients are to be assigned to one of 4 dose groups in equal ratio testing 0.5 mg, 1 mg, and 2 mg baxdrostat effects compared to a placebo. Patients are to administer double-blind baxdrostat tablets once per day while they continue taking the background antihypertensive medications. After 8 weeks of double-blind treatment, patients were to enter part 2 of the study unless the patient was assigned to the 2 mg group and the SBP remains ≥130 mmHg. In part 2 of the study, all patients are to cease dosing with background antihypertensive medication and take only baxdrostat 2 mg dose as a monotherapy for 4 weeks.
The secondary objectives are to evaluate the change from baseline in mean seated DBP with each of the selected dose strengths of baxdrostat compared to placebo after 8 weeks of treatment (Part 1), the change from baseline in 24-hour urine aldosterone and serum aldosterone levels with each of the selected dose strengths of baxdrostat compared to placebo after 8 weeks of treatment (Part 1), the percentage of patients achieving a mean seated SBP<130 mmHg (“responders”) with each of the selected dose strengths of baxdrostat compared to placebo after 8 weeks; and the change from baseline in 24-hour urine renin and serum renin levels with baxdrostat compared to placebo after 8 weeks of treatment. Patients who have completed the Part 2 study through Week 12 or who were considered withdrawn at the end of Part 1 may be eligible to enter a separate open label extension study (Study 130). Part 2 is an exploratory phase of the trial designed to evaluate the effect of 4 weeks of monotherapy with 2 mg baxdrostat in this hypertensive population, but the major goal of the Part 2 period is to transition patients to a long-term open label safety extension study of baxdrostat at the highest dose likely to be used in the hypertension population.
In Part 2, background antihypertensive therapy was discontinued following Part 1, and patients took two mg Baxdrostat for four additional weeks. […] There were two cases of moderate hyperkalemia with K+>/=6.0 mEq/L in the 213 patients in Part 2; both patients had stopped diuretic at the start of Part 2 and developed transient moderate hyperkalemia within 2 weeks.

CCC(=O)N[C@@H]1CCCc2c(-c3ccc4c(c3)CCC(=O)N4C)cncc21 [baxdrostat, (R)—N-(4-(1-methyl-2-oxo-1,2,3,4-tetrahydroquinolin-6-yl)-5,6,7,8-tetrahydroisoquinolin-8-yl) propionamide]
SBP between the start and the end of the four weeks (2 mg only, after withdrawal of background medication): remained stable | safety and tolerability (2 mg, 213 patients who entered Part 2): safe and well-tolerated | cases of moderate hyperkalemia with K+ >/=6.0 mEq/L (213 patients in Part 2): two cases | treatment emergent SAEs (Part 2, 2 mg): 4 events/3 patients with none deemed related to baxdrostat | AESI, % (0.5 mg to 2 mg, n = 63): 0% | AESI, e - Number of events (0.5 mg to 2 mg, n = 63): 0 | AESI, n - Number of subjects (0.5 mg to 2 mg, n = 63): 0 | SAEs, % (0.5 mg to 2 mg, n = 63): 0.0% | SAEs, e - Number of events (0.5 mg to 2 mg, n = 63): 0 | SAEs, n - Number of subjects (0.5 mg to 2 mg, n = 63): 0 | TEAEs Drug-Related, % (0.5 mg to 2 mg, n = 63): 5.6% | TEAEs Drug-Related, e - Number of events (0.5 mg to 2 mg, n = 63): 4 | TEAEs Drug-Related, n - Number of subjects (0.5 mg to 2 mg, n = 63): 3 | TEAEs Leading to death, % (0.5 mg to 2 mg, n = 63): 0.0% | TEAEs Leading to death, e - Number of events (0.5 mg to 2 mg, n = 63): 0 | TEAEs Leading to death, n - Number of subjects (0.5 mg to 2 mg, n = 63): 0 | TEAEs Leading to dosing discontinuation, % (0.5 mg to 2 mg, n = 63): 0% | TEAEs Leading to dosing discontinuation, e - Number of events (0.5 mg to 2 mg, n = 63): 0 | TEAEs Leading to dosing discontinuation, n - Number of subjects (0.5 mg to 2 mg, n = 63): 0 | TEAEs Leading to study discontinuation, % (0.5 mg to 2 mg, n = 63): 0.0% | TEAEs Leading to study discontinuation, e - Number of events (0.5 mg to 2 mg, n = 63): 0 | TEAEs Leading to study discontinuation, n - Number of subjects (0.5 mg to 2 mg, n = 63): 0 | TEAEs, % (0.5 mg to 2 mg, n = 63): 16.7% | TEAEs, e - Number of events (0.5 mg to 2 mg, n = 63): 15 | TEAEs, n - Number of subjects (0.5 mg to 2 mg, n = 63): 9 | AESI, % (1 mg to 2 mg, n = 62): 1.8% | AESI, e - Number of events (1 mg to 2 mg, n = 62): 1 | AESI, n - Number of subjects (1 mg to 2 mg, n = 62): 1 | SAEs, % (1 mg to 2 mg, n = 62): 1.8% | SAEs, e - Number of events (1 mg to 2 mg, n = 62): 2 | SAEs, n - Number of subjects (1 mg to 2 mg, n = 62): 1 | TEAEs Drug-Related, % (1 mg to 2 mg, n = 62): 8.8% | TEAEs Drug-Related, e - Number of events (1 mg to 2 mg, n = 62): 6 | TEAEs Drug-Related, n - Number of subjects (1 mg to 2 mg, n = 62): 5 | TEAEs Leading to death, % (1 mg to 2 mg, n = 62): 0.0% | TEAEs Leading to death, e - Number of events (1 mg to 2 mg, n = 62): 0 | TEAEs Leading to death, n - Number of subjects (1 mg to 2 mg, n = 62): 0 | TEAEs Leading to dosing discontinuation, % (1 mg to 2 mg, n = 62): 3.5% | TEAEs Leading to dosing discontinuation, e - Number of events (1 mg to 2 mg, n = 62): 3 | TEAEs Leading to dosing discontinuation, n - Number of subjects (1 mg to 2 mg, n = 62): 2 | TEAEs Leading to study discontinuation, % (1 mg to 2 mg, n = 62): 0.0% | TEAEs Leading to study discontinuation, e - Number of events (1 mg to 2 mg, n = 62): 0 | TEAEs Leading to study discontinuation, n - Number of subjects (1 mg to 2 mg, n = 62): 0 | TEAEs, % (1 mg to 2 mg, n = 62): 21.1% | TEAEs, e - Number of events (1 mg to 2 mg, n = 62): 26 | TEAEs, n - Number of subjects (1 mg to 2 mg, n = 62): 12 | AESI, % (2 mg, n = 60): 2.4% | AESI, e - Number of events (2 mg, n = 60): 1 | AESI, n - Number of subjects (2 mg, n = 60): 1 | SAEs, % (2 mg, n = 60): 0% | SAEs, e - Number of events (2 mg, n = 60): 0 | SAEs, n - Number of subjects (2 mg, n = 60): 0 | TEAEs Drug-Related, % (2 mg, n = 60): 0% | TEAEs Drug-Related, e - Number of events (2 mg, n = 60): 0 | TEAEs Drug-Related, n - Number of subjects (2 mg, n = 60): 0 | TEAEs Leading to death, % (2 mg, n = 60): 0.0% | TEAEs Leading to death, e - Number of events (2 mg, n = 60): 0 | TEAEs Leading to death, n - Number of subjects (2 mg, n = 60): 0 | TEAEs Leading to dosing discontinuation, % (2 mg, n = 60): 0% | TEAEs Leading to dosing discontinuation, e - Number of events (2 mg, n = 60): 0 | TEAEs Leading to dosing discontinuation, n - Number of subjects (2 mg, n = 60): 0 | TEAEs Leading to study discontinuation, % (2 mg, n = 60): 0.0% | TEAEs Leading to study discontinuation, e - Number of events (2 mg, n = 60): 0 | TEAEs Leading to study discontinuation, n - Number of subjects (2 mg, n = 60): 0 | TEAEs, % (2 mg, n = 60): 16.7% | TEAEs, e - Number of events (2 mg, n = 60): 9 | TEAEs, n - Number of subjects (2 mg, n = 60): 7 | AESI, % (Placebo to 2 mg, n = 64): 1.7% | AESI, e - Number of events (Placebo to 2 mg, n = 64): 2 | AESI, n - Number of subjects (Placebo to 2 mg, n = 64): 1 | SAEs, % (Placebo to 2 mg, n = 64): 3.3% | SAEs, e - Number of events (Placebo to 2 mg, n = 64): 2 | SAEs, n - Number of subjects (Placebo to 2 mg, n = 64): 2 | TEAEs Drug-Related, % (Placebo to 2 mg, n = 64): 5.0% | TEAEs Drug-Related, e - Number of events (Placebo to 2 mg, n = 64): 5 | TEAEs Drug-Related, n - Number of subjects (Placebo to 2 mg, n = 64): 3 | TEAEs Leading to death, % (Placebo to 2 mg, n = 64): 0.0% | TEAEs Leading to death, e - Number of events (Placebo to 2 mg, n = 64): 0 | TEAEs Leading to death, n - Number of subjects (Placebo to 2 mg, n = 64): 0 | TEAEs Leading to dosing discontinuation, % (Placebo to 2 mg, n = 64): 0% | TEAEs Leading to dosing discontinuation, e - Number of events (Placebo to 2 mg, n = 64): 0 | TEAEs Leading to dosing discontinuation, n - Number of subjects (Placebo to 2 mg, n = 64): 0 | TEAEs Leading to study discontinuation, % (Placebo to 2 mg, n = 64): 0.0% | TEAEs Leading to study discontinuation, e - Number of events (Placebo to 2 mg, n = 64): 0 | TEAEs Leading to study discontinuation, n - Number of subjects (Placebo to 2 mg, n = 64): 0 | TEAEs, % (Placebo to 2 mg, n = 64): 21.7% | TEAEs, e - Number of events (Placebo to 2 mg, n = 64): 24 | TEAEs, n - Number of subjects (Placebo to 2 mg, n = 64): 13 | AESI, % (Total, n = 249): 1.4% | AESI, e - Number of events (Total, n = 249): 4 | AESI, n - Number of subjects (Total, n = 249): 3 | SAEs, % (Total, n = 249): 1.4% | SAEs, e - Number of events (Total, n = 249): 4 | SAEs, n - Number of subjects (Total, n = 249): 3 | TEAEs Drug-Related, % (Total, n = 249): 5.2% | TEAEs Drug-Related, e - Number of events (Total, n = 249): 15 | TEAEs Drug-Related, n - Number of subjects (Total, n = 249): 11 | TEAEs Leading to death, % (Total, n = 249): 0.0% | TEAEs Leading to death, e - Number of events (Total, n = 249): 0 | TEAEs Leading to death, n - Number of subjects (Total, n = 249): 0 | TEAEs Leading to dosing discontinuation, % (Total, n = 249): 0.9% | TEAEs Leading to dosing discontinuation, e - Number of events (Total, n = 249): 3 | TEAEs Leading to dosing discontinuation, n - Number of subjects (Total, n = 249): 2 | TEAEs Leading to study discontinuation, % (Total, n = 249): 0.0% | TEAEs Leading to study discontinuation, e - Number of events (Total, n = 249): 0 | TEAEs Leading to study discontinuation, n - Number of subjects (Total, n = 249): 0 | TEAEs, % (Total, n = 249): 19.2% | TEAEs, e - Number of events (Total, n = 249): 74 | TEAEs, n - Number of subjects (Total, n = 249): 41
